We go through one compound from patent US8067456B2 (AEterna Zentaris GmbH, priority 2004, dated 2011).

The experiment addresses T1, rat LHRH receptor (Rattus norvegicus, UniProt P30969).
T1 construct: expressed in transfected cells; host or cells: LTK cells (mouse fibroblasts, ATCC CCL-1.3)
T1 sequence (P30969 1-327): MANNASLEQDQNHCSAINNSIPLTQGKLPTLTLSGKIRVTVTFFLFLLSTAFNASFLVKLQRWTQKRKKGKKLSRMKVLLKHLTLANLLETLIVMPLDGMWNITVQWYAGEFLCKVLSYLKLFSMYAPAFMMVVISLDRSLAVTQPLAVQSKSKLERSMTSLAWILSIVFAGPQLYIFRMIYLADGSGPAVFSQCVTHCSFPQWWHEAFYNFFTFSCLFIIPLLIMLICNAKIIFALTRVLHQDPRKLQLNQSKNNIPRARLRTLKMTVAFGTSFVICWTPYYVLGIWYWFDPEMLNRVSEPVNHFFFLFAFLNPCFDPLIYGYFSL
Briefly: LHRH receptor-ligand binding assay (transfected LTK cells). The conditions noted are these: LTK cells transfected with rat LHRH receptor, 125I-triptorelin tracer, 37° C., 60 min; read-out: Binding to r-LHRHR EC50. On the procedure:
^125I-Triptorelin [^125I-(D)-Trp6-GnRH] was purchased from Biotrend (Cologne, Germany).
The specific activity was in each case 2.13 Ci/mmol.
LTK cells (mouse fibroblasts: ATCC No. CCL-1.3) which have been transfected with the rat LHRH receptor are cultivated in DMEM medium (Invitrogen Life Technologies, Germany) with penicillin (100 I.U./ml), streptomycin (0.1 mg/ml) and glutamine (0.01 mol/l) and 10% fetal calf serum (FCS; Invitrogen Life Technologies, Germany) on plastic tissue culture plates (Nunc, Germany, 245×245-20 mm).
80% confluent cell culture plates are washed twice with 50 ml of phosphate-buffered saline (PBS) and then detached with 0.01 M EDTA solution. The cells are pelleted by centrifugation at 200·g for 5 min in a laboratory centrifuge (Kendro, Germany). The cell pellet is resuspended in 3 ml of binding medium (DMEM; 10 mM Hepes; 0.5% BSA; 0.1% […]; 1 g/l bacitracin (add fresh, stock 100×); 0.1 g/l SBTI (add fresh, stock 1000×) and the cell count is determined by Trypan blue staining in a Neubauer counting chamber. The cell suspension is adjusted with binding medium to a concentration of 5×10^5 cells/0.05 ml.
Binding studies for competition plots are carried out as duplicates. The test substances are employed as 10 mM DMSO solutions. They are diluted to 4 times the final concentration employed with binding medium. 25 μl of the substance dilution are mixed with 25 μl of tracer solution (^125I-triptorelin or ^125I-cetrorelix). The tracer concentration is adjusted to approx. 50 000 cpm (measured in a Cobra II, γ counter. PE Liefe Science, Germany) in the final reaction volume of 100 μl.
200 μl of silicone/liquid paraffin mixture (84%:16%) are introduced into 650 μl conical tubes (Roth. Germany). 50 μl of the cell suspension are pipetted thereon, followed by 50 μl of the test substance/tracer mixture. The tubes are capped and incubated with vertical rotation in an incubator at 37° C. for 60 min. After incubation, the samples are centrifuged in a centrifuge (Kendro, Germany) at 900 rpm and subsequently shock-frozen in liquid N2. The tip with the cell pellet is cut off and transferred into prepared counting vials (Roth, Germany). The remainder of the conical tube with the remaining supernatant is likewise transferred into a counting vial. The measurement takes place in a γ counter for 1 min/sample.
Evaluation of the samples takes place after calculation of the specific binding compared with untreated cells, after subtraction of the nonspecific binding (excess of unlabeled ligand, 1 μM) by means of GraphPad Prism or alternatively by means of OMMM software.

Broadly, the EC50 is the midpoint of the concentration-response curve. As for `CCC(C)[C@H](NC(=O)OCc1ccccc1)C(=O)N[C@]1(C(=O)N[C@H](C(N)=S)C(C)CC)CCc2[nH]c3c(Cl)cc(Cl)cc3c2C1` (stereo partly drawn) [Compound 7, benzyl {(S)-1-[(R)-6,8-dichloro-3-((S)-2-methyl-1-thiocarbamoylbutylcarbamoyl)-2,3,4,9-tetrahydro-1H-carbazol-3-ylcarbamoyl]-2-methylbutyl}carbamate], the half-maximal effective concentration (EC50) amounted to 7.9 nM.
